Measured values as given in patent US9232796B2, “Herbicidal compositions comprising 4-amino-3-chloro-5-fluoro-6-(4-chloro-2-fluoro-3-methoxyphenyl) pyridine-2-carboxylic acid or a derivative thereof and acetyl-CoA carboxylase (ACCase) inhibitors” (DOW AGROSCIENCES LLC, priority 2012, dated 2016).

Legend:
AVEFA = experiment: Example III postemergence foliar-applied, greenhouse, weeds common to row crops such as corn and soybeans; format: in vivo, Avena fatua L.
Source text: Seeds or nutlets of the desired test plant species were planted in a soil matrix prepared by mixing a loam or sandy loam soil (e.g., 28.6 percent silt, 18.8 percent clay, and 52.6 percent sand, with a pH of about 5.8 and an organic matter content of about 1.8 percent) and calcareous grit in an 80 to 20 ratio. The soil matrix was contained in plastic pots with a surface area of 84.6 square centimeters (cm^2) and a volume of 560 cubic centimeters (cm^3). When required to ensure good germination and healthy plants, a fungicide treatment and/or other chemical or physical treatment was applied. The plants were grown for 7-31 days (d) in a greenhouse with an approximate 15 hour (h) photoperiod which was maintained at about 23-29° C. during the day and 22-28° C. during the night. Nutrients (Peters Excel® 15-5-15 5-Ca 2-Mg) and water were added on a regular basis and supplemental lighting was provided with overhead metal halide 1000-Watt lamps as necessary. The plants were employed for testing when they reached the first, second, or third true leaf stage.
(§1) Treatment requirements were calculated based upon the rates being tested, the concentration of active ingredient or acid equivalent in the formulation, and a 12 mL application volume at a rate of 187 L/ha.
(§2) Treatments consisted of the acid or esters of 4-amino-3-chloro-5-fluoro-6-(4-chloro-2-fluoro-3-methoxy-phenyl)pyridine-2-carboxylic acid (Compound A), each formulated as an SC (suspension concentrate), and various herbicidal components alone and in combination.
Other herbicidal components were applied on an acid equivalent basis and included acetyl coA carboxylase (ACCase)-inhibiting herbicide (cyclohexanedione and aryloxyphenoxypropionate chemical classes) quizalofop-p-ethyl formulated as Assure® II.
All stock solutions and applications solutions were visually inspected for compound compatibility prior to application. Compound requirements are based upon a 12 mL application volume at a rate of 187 liters per hectare (L/ha). Formulated compounds were applied to the plant material with an overhead Mandel track sprayer equipped with 8002E nozzles calibrated to deliver 187 L/ha over an application area of 0.503 square meters (m^2) at a spray height of 18 to 20 inches (46 to 50 cm) above the average plant canopy height. Control plants were sprayed in the same manner with the solvent blank.
(§3) The treated plants and control plants were placed in a greenhouse as described above and watered by sub-irrigation to prevent wash-off of the test compounds. After approximately 2 weeks, the condition of the test plants as compared with that of the untreated plants was determined visually and scored on a scale of 0 to 100 percent where 0 corresponds to no injury or growth inhibition and 100 corresponds to complete kill.
(§4) Colby's equation was used to determine the herbicidal effects expected from the mixtures (Colby, S. R. 1967. Calculation of the synergistic and antagonistic response of herbicide combinations. Weeds 15:20-22.).
The following equation was used to calculate the expected activity of mixtures containing two active ingredients, A and B: Expected=A+B−(A×B/100)

CYPES = experiment: Example I postemergence foliar-applied, greenhouse, direct seeded rice weeds; format: in vivo, Cyperus esculentus L.
Source text: (§5) Seeds or nutlets of the desired test plant species were planted in a soil matrix prepared by mixing a loam or sandy loam soil (e.g., 28.6 percent silt, 18.8 percent clay, and 52.6 percent sand, with a pH of about 5.8 and an organic matter content of about 1.8 percent) and calcareous grit in an 80 to 20 ratio. The soil matrix was contained in plastic pots with a volume of 1 quart and a surface area of 83.6 square centimeters (cm^2). When required to ensure good germination and healthy plants, a fungicide treatment and/or other chemical or physical treatment was applied. The plants were grown for 8-22 days in a greenhouse with an approximate 14 hr. photoperiod which was maintained at about 29° C. during the day and 26° C. during the night. Nutrients (Peters Excel® 15-5-15 5-Ca 2-Mg and iron chelate) were applied in the irrigation solution as needed and water was added on a regular basis. Supplemental lighting was provided with overhead metal halide 1000-Watt lamps as necessary. The plants were employed for testing when they reached the first through fourth true leaf stage.
as §2
(§6) Other herbicidal components were applied on an acid equivalent (ae) or active ingredient (ai) basis and included acetyl coA carboxylase (ACCase)-inhibiting herbicides (cyclohexanedione and aryloxyphenoxypropionate chemical classes) cyhalofop-butyl formulated as Clincher® SF (285 gr ai/L EC), diclofop-methyl formulated as Hoelon® 3EC, fenoxaprop-p-ethyl+isoxadifen-ethyl formulated as RiceStar® HT (0.58 lb./gal EC), fenoxaprop-p-ethyl+mefenpyr diethyl formulated as Puma® IEC, metamifop formulated as Metamifop EC, haloxyfop-methyl formulated as Gallant Super®, fluazifop-p-butyl formulated as Fusilade® DX, quizalofop-p-ethyl formulated as Assure® II, profoxydim formulated as Aura® 20EC, clethodim applied as Intensity®, sethoxydim formulated as Poast®, and tralkoxydim formulated as Achieve®.
as §1
(§7) For treatments comprised of formulated compounds, measured amounts of compounds were placed individually in 25 mL glass vials and diluted in a volume of 1.25% (v/v) Agri-Dex® crop oil concentrated to obtain 12× stock solutions. […] Application solutions were prepared by adding an appropriate amount of each stock solution (e.g., 1 mL) and diluted to the appropriate final concentrations with the addition of 10 mL of an aqueous mixture of 1.25% (v/v) crop oil concentrate so that the final spray solutions contained 1.25+/−0.05% (v/v) crop oil concentrate.
(§8) All stock solutions and applications solutions were visually inspected for compound compatibility prior to application. Spray solutions were applied to the plant material with an overhead Mandel track sprayer equipped with a 8002E nozzles calibrated to deliver 187 L/ha over an application area of 0.503 m^2 at a spray height of 18 to 20 inches (46 to 50 cm) above average plant canopy height. Control plants were sprayed in the same manner with the solvent blank.
as §3, with “3” for “2”, “kill. […]” for “kill.”

ECHCG = experiment: as above; format: in vivo, Echinochloa crusgalli (L.) Beauv.
Source text: as §5, §2, §6, §1, §7, §8
as §3, with “3” for “2”, “kill. […]” for “kill.”

IPOHE = experiment: Example V (second) postemergence foliar-applied ternary mixtures, greenhouse, direct seeded rice weeds; format: in vivo, Ipomoea hederacea Jacq.
Experimental: as §3, with “3” for “2”
as §4
The following equation was used to calculate the expected activity of mixtures containing three active ingredients, A, B, and C: Expected=A+B+C−((A×B+A×C+B×C)/100)+(A×B×C/10000)

COc1c(Cl)ccc(-c2nc(C(=O)O)c(Cl)c(N)c2F)c1F [Compound A Acid, 4-amino-3-chloro-6-(4-chloro-2-fluoro-3-methoxyphenyl)-5-fluoropyridine-2-carboxylic acid]
Visual Weed Control (%) - 14 DAA AVEFA Obs (AVEFA; Compound A Acid 3.75 gae/ha): 0%
Visual Weed Control (%) - 14 DAA AVEFA Obs (AVEFA; Compound A Acid 7.5 gae/ha): 0%
Visual Weed Control (%) - 14 DAA AVEFA Obs (AVEFA; Compound A Acid 15 gae/ha): 0%
Visual Weed Control (%) - 20 DAA CYPES Obs (CYPES; 4.38 gae/ha): 30%
Visual Weed Control (%) - 22 DAA CYPES Obs (CYPES; 4.38 gae/ha): 50%
Visual Weed Control (%) - 20 DAA CYPES Obs (CYPES; 8.75 gae/ha): 70%
Visual Weed Control (%) - 22 DAA CYPES Obs (CYPES; 8.75 gae/ha): 75%

COc1c(Cl)ccc(-c2nc(C(=O)OCc3ccccc3)c(Cl)c(N)c2F)c1F [Compound A Benzyl Ester, benzyl ester of 4-amino-3-chloro-5-fluoro-6-(4-chloro-2-fluoro-3-methoxy-phenyl)pyridine-2-carboxylic acid]
Visual Weed Control (%) - 22 DAA ECHCG Obs (ECHCG; 8 gae/ha): 35%
Visual Weed Control (%) - 22 DAA ECHCG Obs (ECHCG; 16 gae/ha): 65%
Visual Weed Control (%) - 22 DAA ECHCG Obs (ECHCG; 32 gae/ha): 80%
Visual Weed Control (%) - 21 DAA IPOHE Obs (IPOHE; 2.19 gae/ha, upper sub-table): 30%
Visual Weed Control (%) - 21 DAA IPOHE Obs (IPOHE; 4.38 gae/ha, upper sub-table): 38%
Visual Weed Control (%) - 21 DAA IPOHE Obs (IPOHE; 8 ae/ha): 20%
Visual Weed Control (%) - 21 DAA IPOHE Obs (IPOHE; 8 gae/ha): 10%
Visual Weed Control (%) - 21 DAA IPOHE Obs (IPOHE; 8 gae/ha, lower sub-table): 15%
Visual Weed Control (%) - 21 DAA IPOHE Obs (IPOHE; 16 gae/ha): 30%
Visual Weed Control (%) - 21 DAA IPOHE Obs (IPOHE; 16 gae/ha, lower sub-table): 33%
Visual Weed Control (%) - 14 DAA AVEFA Obs (AVEFA; Compound A Benzyl Ester 3.75 gae/ha): 10%
Visual Weed Control (%) - 14 DAA AVEFA Obs (AVEFA; Compound A Benzyl Ester 7.5 gae/ha): 0%
Visual Weed Control (%) - 14 DAA AVEFA Obs (AVEFA; Compound A Benzyl Ester 15 gae/ha): 10%
Visual Weed Control (%) - 20 DAA CYPES Obs (CYPES; 4.38 gae/ha): 70%
Visual Weed Control (%) - 20 DAA CYPES Obs (CYPES; 8 gae/ha): 0%
Visual Weed Control (%) - 20 DAA CYPES Obs (CYPES; 8.75 gae/ha): 80%
Visual Weed Control (%) - 20 DAA CYPES Obs (CYPES; 16 gae/ha): 75%
Visual Weed Control (%) - 20 DAA CYPES Obs (CYPES; 17.5 gae/ha): 95%

CCCCOC(=O)[C@@H](C)Oc1ccc(Oc2ccc(C#N)cc2F)cc1 [Cyhalofop-butyl, butyl(2R)-2-[4-(4-cyano-2-fluorophenoxy)phenoxy]propanoate, reference compound]
Visual Weed Control (%) - 21 DAA IPOHE Obs (IPOHE; 17.5 gai/ha): 0%
Visual Weed Control (%) - 21 DAA IPOHE Obs (IPOHE; 35 gai/ha): 0%
Visual Weed Control (%) - 21 DAA IPOHE Obs (IPOHE; 35 gai/ha, lower sub-table): 0%
Visual Weed Control (%) - 21 DAA IPOHE Obs (IPOHE; 35 gai/ha, upper sub-table): 0%

C[C@@H](Oc1ccc(Oc2nc3ccc(Cl)cc3o2)cc1)C(=O)N(C)c1ccccc1F [Metamifop, (2R)-2-[4-[(6-chloro-2-benzoxazolyl)oxy]phenoxy]-N-(2-fluorophenyl)-N-methylpropanamide]
Visual Weed Control (%) - 22 DAA ECHCG Obs (ECHCG; 9.38 gai/ha): 0%
Visual Weed Control (%) - 22 DAA ECHCG Obs (ECHCG; 18.75 gai/ha): 40%
Visual Weed Control (%) - 22 DAA ECHCG Obs (ECHCG; 37.5 gai/ha): 70%

CCOC(=O)[C@@H](C)Oc1ccc(Oc2cnc3cc(Cl)ccc3n2)cc1 [Quizalofop-p-ethyl, ethyl(2R)-2-[4-[(6-chloro-2-quinoxalinyl)oxy]phenoxy]propanoate, reference compound]
Visual Weed Control (%) - 22 DAA ECHCG Obs (ECHCG; 3.75 gai/ha): 20%
Visual Weed Control (%) - 22 DAA ECHCG Obs (ECHCG; 7.5 gai/ha): 30%
Visual Weed Control (%) - 14 DAA AVEFA Obs (AVEFA; Quizalofop-p-ethyl 14.25 gae/ha): 40%
